# Data reported in US20160136229A1, “MATERIALS FOR POSITIVE CATHEPSIN B MODULATION AND METHODS OF USE FOR TREATING MILD COGNITIVE IMPAIRMENT (MCI), EARLY DEMENTIA, A-SYNUCLEINOPATHY, TRAUMATIC BRAIN INJURY, CARDIOMYOPATHY, EYE DISEASE AND SKIN DAMAGE” (University of North Carolina at Pembroke, priority 2013, published 2016).
# Experiments:
# active cathepsin = target: T1, active cathepsin (Mus musculus, UniProt P10605); test: Active cathepsin in brain samples of PADK-injected C57BL/6 mice; assay type: in vivo; conditions: ip daily for 9 days
# T1 construct: from tissue; host or cells: brain and CNS regions of mice (PADK-treated mice, A53T transgenic and wild-type mice, C57BL/6 mice)
# [1] = target: T2, 30-kDa active form of cathepsin B (Rattus norvegicus, UniProt P00787); test: Immunoblot of active cathepsin B in brain region homogenates of Fischer rats; assay type: in vivo; conditions: hippocampal and neocortical homogenates; 27 mg/kg daily, 9 days of injections
# T2 construct: assessed by immunoblot to label the 30-kDa active form of cathepsin B; from tissue; host or cells: Fischer rat brain regions (A5); rat brain regions, eye and skin after oral dosing (A18); rat organotypic heart slice cultures (A17)
# Protocol: FIG. 3. Lysosomal modulator PADK dramatically up-regulates active cathepsin B levels in middle-aged Fischer rats, a model of MCI. The female rats were injected daily with vehicle (veh) or 27 mg/kg PADK for 9 days. Brain regions were dissected, homogenates prepared, and equal protein aliquots were assessed by immunoblot to label the 30-kDa active form of cathepsin B as well as actin load controls (A). The hippocampal homogenate samples were also stained for the postsynaptic marker GluR1 to assess for synaptic recovery in correspondence to cathepsin B regulation (A, lower blots).
# Brains were removed from the Fischer rats after the behavior studies in order to assess cathepsin B and synaptic marker levels. […] Cathepsin B immunoreactivity was increased 4- to 8-fold in hippocampal as well as neocortical homogenates, while non-lysosomal proteins remained unchanged (gel load controls). In addition to the correspondence with improved memory, there is evidence that the lysosomal modulation corresponds with synaptic recovery, assessing the postsynaptic marker GluR1 in hippocampus (FIG. 3A lower blots, and FIG. 3C). Without wishing to be bound by any scientific theory, the results support the hypothesis that lysosomal enhancement offsets the age-related cascade of microtubule destabilization, transport failure, synaptic decline, and cognitive impairment. […]
# 11-month Fischer rats = test: Exploratory habituation in novel field, Fischer rats; assay type: in vivo, rat; conditions: 27 mg/kg daily, vs vehicle-treated rats
# Protocol: FIG. 2. The cathepsin B modulatory compound PADK improved learning and memory in 11-month Fischer rats, a model of mild cognitive impairment (MCI) and early dementia. A classic passive avoidance task to assess memory utilized a bi-sectioned apparatus consisting of a brightly-lit compartment and a dark compartment separated by a small door. […] In this figure, the female rats were injected daily with vehicle or 27 mg/kg PADK. Following each morning's injection, the rats were placed individually into the bright compartment and, after 10 s, the door was opened through which the rats typically entered immediately (3 min total time in apparatus/rat/day). Panel A: On the seventh injection day, latency time before entering the opened doorway was measured (pre-shock bars, mean±SEM), after which the door was closed to contain the animal in the dark compartment. A mild foot shock of 0.6 mA, 2 s duration, was then administered to the contained rat via the floor grid. Following the next day's injections, rats were again placed in the bright compartment and latency times measured after the door was opened (post-shock bars). […] Brains were removed after the behavior studies in order to assess cathepsin B levels.
# The animal groups were also tested across two days in the same novel field, and the number of grid crossings per 3-min period was measured to determine exploratory habituation.
# active cathepsin B = target: T3, active cathepsin B (Mus musculus, UniProt P10605); test: Active cathepsin B staining in PADK-treated mice; assay type: in vivo; conditions: 18 mg/kg/d×9 days, ip, vs vehicle
# T3 construct: from tissue; host or cells: brain and CNS regions of mice (PADK-treated mice, A53T transgenic and wild-type mice, C57BL/6 mice)
# Protocol: FIG. 4. Enhancing lysosome efficiency with the cathepsin B modulator PADK leads to reductions of multiple types of proteinopathy-related accumulation events. […] Age-matched wild-type mice (wt) and 9-10-month mutant human APP mice, a model of early dementia, treated with or without PADK were assessed for the 4-kDa Δβ peptide, the active form of cathepsin B (act CB), and other proteins in hippocampal samples (C). Similar treatment groups used another APP mouse model at 20-22 months of age to measure clearance of APP carboxyterminal fragments APP-αCTF and APP-βCTF (D). Rat hippocampal slice cultures from the untreated control group (con) and slices treated with submicromolar Δβ42 (early tauopathy model) in the absence or presence of PADK (5 μM for 4 days) were assessed for phosphorylated tau (pTau) and other proteins (E). For a model of early α-synucleinopathy, human A53T α-synuclein transgenic mice, at 7 months old, were studied with or without PADK treatment and assessed for human α-synuclein (α-syn) in TX-100 extracts of hippocampus and for other proteins in hippocampal homogenates (F). Plotted data (±SEM) were compared to neighboring vehicle groups by unpaired t-tests: *p=0.02, **p<0.01, ***p<0.001. APPswind and APP-PS1 mice are described in Butler et al., (2011), the entire content of which is hereby incorporated herein by reference.
# C57BL/6 mice = test: Safety evaluation in PADK-injected C57BL/6 mice (synaptic markers, blood markers, behavior, organ histology); assay type: in vivo, mouse
# Protocol: FIG. 11. Safety evaluation of PADK found no evidence of toxicity. […] Alanine aminotransferase (ALT) and blood urea nitrogen (BUN) measures in plasma were also unchanged (E), indicating no effect on major organs. […] Organ sections were H+E stained and tissue integrity was evaluated by a pathologist that was blinded to the treatment groups (G).
# Additional safety evaluation tests with PADK were conducted. […] Blood markers were also unchanged, indicating no effect on major organs (FIG. 11E).
# [2] = C57BL/6 mice, ip daily for 9 days
# T3 sequence (P10605 80-333 limits assumed): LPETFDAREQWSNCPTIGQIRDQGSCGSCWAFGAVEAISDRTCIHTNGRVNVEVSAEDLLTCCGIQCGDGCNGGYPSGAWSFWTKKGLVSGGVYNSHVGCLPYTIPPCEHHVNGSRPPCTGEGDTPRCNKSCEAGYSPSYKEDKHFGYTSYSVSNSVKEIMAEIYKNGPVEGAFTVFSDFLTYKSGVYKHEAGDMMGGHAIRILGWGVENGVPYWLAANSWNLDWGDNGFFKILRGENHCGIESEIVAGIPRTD
# T1 sequence (P10605 80-333 limits assumed): as above
# T2 sequence (P00787 80-333 limits assumed): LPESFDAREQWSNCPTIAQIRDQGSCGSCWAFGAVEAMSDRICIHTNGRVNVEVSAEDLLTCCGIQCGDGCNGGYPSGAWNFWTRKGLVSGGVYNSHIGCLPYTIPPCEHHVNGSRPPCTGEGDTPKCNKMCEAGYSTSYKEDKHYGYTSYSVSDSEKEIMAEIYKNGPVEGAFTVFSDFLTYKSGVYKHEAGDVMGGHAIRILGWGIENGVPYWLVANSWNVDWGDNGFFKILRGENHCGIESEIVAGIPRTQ
smiles,measurement,setting,value
"C[C@H](NC(=O)[C@H](Cc1ccccc1)NC(=O)OCc1ccccc1)C(=O)C=[N+]=[N-] [PADK, N-carbobenzyloxy-L-phenylalanyl-L-alanyl-diazomethylketone]",active cathepsin in brain samples,active cathepsin,dose-dependent increase
same,Cathepsin B immunoreactivity increase,[1],4- to 8 fold
same,"grid crossings per 3-min period, day 1",11-month Fischer rats,No significant difference
same,"exploratory habituation, second day",11-month Fischer rats; P<0.05,improved habituation
same,levels of active cathepsin B,active cathepsin B,increased levels of active cathepsin B
same,Alanine aminotransferase (ALT) in plasma,C57BL/6 mice; [2],unchanged
same,blood urea nitrogen (BUN) in plasma,C57BL/6 mice; [2],unchanged
same,synaptic markers,C57BL/6 mice; [2],unchanged
same,motor coordination rotarod test,C57BL/6 mice; prior behavioral tests,no adverse effects
same,spatial memory using conditioned place preference,C57BL/6 mice; prior behavioral tests,no adverse effects
same,"organ tissue integrity (H+E stained sections, blinded pathologist)",C57BL/6 mice; various organs,scored as normal
